From ChEMBL document CHEMBL5625276, “Antascomicin B stabilizes FKBP51-Akt1 complexes as a molecular glue” (Bioorg Med Chem Lett, 2024)
Activity calls are given as the source filed them. The calls are words filed in the database; no cut-off is given here.

Legend:
[1] = molecular target: T1, Peptidyl-prolyl cis-trans isomerase FKBP5 (Homo sapiens, UniProt Q13451); assay: Binding affinity to human FKBP51 FK1 domain expressed in Escherichia coli BL21 DE3 Gold assessed as dissociation constant incubated for 30 mins by competitive fluorescence polarization assay
T1 sequence (Q13451 whole entry): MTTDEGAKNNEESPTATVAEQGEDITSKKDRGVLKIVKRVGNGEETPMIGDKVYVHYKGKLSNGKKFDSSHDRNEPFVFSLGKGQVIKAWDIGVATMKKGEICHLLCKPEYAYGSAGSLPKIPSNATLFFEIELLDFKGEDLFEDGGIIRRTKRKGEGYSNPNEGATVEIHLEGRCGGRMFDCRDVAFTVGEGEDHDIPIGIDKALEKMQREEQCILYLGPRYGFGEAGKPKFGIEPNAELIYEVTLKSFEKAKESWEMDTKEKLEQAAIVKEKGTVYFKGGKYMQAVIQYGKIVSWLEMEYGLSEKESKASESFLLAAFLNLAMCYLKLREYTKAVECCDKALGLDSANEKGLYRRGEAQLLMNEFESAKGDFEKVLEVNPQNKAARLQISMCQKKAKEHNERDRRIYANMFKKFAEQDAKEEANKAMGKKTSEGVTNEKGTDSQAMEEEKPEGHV

[2] = molecular target: T2, Peptidyl-prolyl cis-trans isomerase FKBP4 (Homo sapiens, UniProt Q02790); assay: Binding affinity to human FKBP52 FK1 domain expressed in Escherichia coli BL21 DE3 Gold assessed as dissociation constant incubated for 30 mins by competitive fluorescence polarization assay
T2 sequence (Q02790 whole entry): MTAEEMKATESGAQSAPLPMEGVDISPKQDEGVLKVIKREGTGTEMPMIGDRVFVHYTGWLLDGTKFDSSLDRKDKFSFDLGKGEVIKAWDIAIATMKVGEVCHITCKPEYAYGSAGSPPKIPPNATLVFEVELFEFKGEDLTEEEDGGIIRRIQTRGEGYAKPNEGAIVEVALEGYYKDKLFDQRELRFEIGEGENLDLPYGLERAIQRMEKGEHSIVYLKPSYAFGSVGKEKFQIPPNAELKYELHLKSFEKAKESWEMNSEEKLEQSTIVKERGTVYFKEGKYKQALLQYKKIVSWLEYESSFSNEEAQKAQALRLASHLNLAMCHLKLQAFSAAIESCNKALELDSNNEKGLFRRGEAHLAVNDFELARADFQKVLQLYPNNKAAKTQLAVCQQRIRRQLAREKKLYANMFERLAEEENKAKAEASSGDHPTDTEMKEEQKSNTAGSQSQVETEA

[3] = system: HEK293T; assay: Stabilization of FLAG tagged human FKBP51 P120pBpa incorporation mutant/human Akt complex in HEK293T cells assessed as induction of photocrosslinking adduct formation at 1 uM pretreated with compound followed by UV irradiation for 30 mins by immunoprecipitation based Western blot analysis; format: cell-based
[4] = molecular target: Peptidyl-prolyl cis-trans isomerase FKBP1A (Homo sapiens, UniProt P62942); assay: Binding affinity to human FKBP12 expressed in Escherichia coli BL21 DE3 Gold assessed as dissociation constant incubated for 30 mins by competitive fluorescence polarization assay
[5] = molecular target: Peptidyl-prolyl cis-trans isomerase FKBP1B (Homo sapiens, UniProt P68106); assay: Binding affinity to human FKBP12.6 expressed in Escherichia coli BL21 DE3 Gold assessed as dissociation constant incubated for 30 mins by competitive fluorescence polarization assay
[6] = system: HEK293T; assay: Stabilization of FLAG tagged human FKBP51 K52pBpa incorporation mutant/human Akt complex in HEK293T cells assessed as increase in photocrosslinking at 1 uM pretreated with compound followed by UV irradiation for 30 mins by immunoprecipitation based Western blot analysis; format: cell-based
[7] = system: HEK293T; assay: Stabilization of FLAG tagged human FKBP51 K52pBpa incorporation mutant/human Akt complex in HEK293T cells assessed as increase in Akt1 coimmunoprecipitation at 1 uM in absence of UV irradiation by immunoprecipitation based Western blot analysis; format: cell-based
[8] = system: HEK293T; assay: Stabilization of FLAG-tagged wild type human FKBP51/human Akt complex in HEK293T cells assessed as increase in Akt co-immunoprecipitation at 1 uM by Western blot analysis; format: cell-based
[9] = system: HEK293T; assay: Stabilization of FLAG-tagged human FKBP51 K52pBpa incorporation mutant/wild type Akt in HEK293T cells assessed as photocrosslinking adduct formation at 1 uM pretreated with compound followed by UV irradiation for 30 mins by immunoprecipitation based Western blot analysis; format: cell-based
[10] = system: HEK293T; assay: Stabilization of FLAG tagged human FKBP51 P120pBpa incorporation mutant/human Akt complex in HEK293T cells assessed as increase in photocrosslinking at 1 uM pretreated with compound followed by UV irradiation for 30 mins by immunoprecipitation based Western blot analysis; format: cell-based
[11] = system: HEK293T; assay: Stabilization of FLAG tagged human FKBP51 P120pBpa incorporation mutant/human Akt complex in HEK293T cells assessed as increase in Akt1 coimmunoprecipitation at 1 uM in absence of UV irradiation by immunoprecipitation based Western blot analysis; format: cell-based
[12] = system: HEK293T; assay: Stabilization of FLAG tagged human FKBP51 E75pBpa incorporation mutant/human Akt complex in HEK293T cells assessed as increase in photocrosslinking pretreated with compound followed by UV irradiation by immunoprecipitation based Western blot analysis; format: cell-based
[13] = system: HEK293T; assay: Stabilization of FLAG tagged human FKBP51 N74pBpa incorporation mutant/human Akt complex in HEK293T cells assessed as increase in photocrosslinking pretreated with compound followed by UV irradiation by immunoprecipitation based Western blot analysis; format: cell-based
[14] = system: HEK293T; assay: Stabilization of FLAG-tagged human HSP90 binding incompetent FKBP51 K352A/R356A mutant/human Akt complex in HEK293T cells assessed as increase in Akt co-immunoprecipitation at 1 uM by Western blot analysis; format: cell-based
[15] = system: HEK293T; assay: Stabilization of FLAG-tagged human FKBP51 K52pBpa incorporation mutant/human Akt S473A mutant in HEK293T cells assessed as photocrosslinking adduct formation at 1 uM pretreated with compound followed by UV irradiation for 30 mins by immunoprecipitation based Western blot analysis; format: cell-based
[16] = system: HEK293T; assay: Stabilization of FLAG-tagged human FKBP51 K52pBpa incorporation mutant/human Akt S473D mutant in HEK293T cells assessed as photocrosslinking adduct formation at 1 uM pretreated with compound followed by UV irradiation for 30 mins by immunoprecipitation based Western blot analysis; format: cell-based
[17] = system: HEK293T; assay: Stabilization of FLAG-tagged human FKBP51 K52pBpa incorporation mutant/human Akt T308A mutant in HEK293T cells assessed as photocrosslinking adduct formation at 1 uM pretreated with compound followed by UV irradiation for 30 mins by immunoprecipitation based Western blot analysis; format: cell-based
[18] = system: HEK293T; assay: Stabilization of FLAG-tagged human FKBP51 K52pBpa incorporation mutant/human Akt T308D mutant in HEK293T cells assessed as photocrosslinking adduct formation at 1 uM pretreated with compound followed by UV irradiation for 30 mins by immunoprecipitation based Western blot analysis; format: cell-based
[19] = system: HEK293T; assay: Stabilization of FLAG-tagged human FKBP51 K52pBpa incorporation mutant/human Akt T308A/S473A mutant in HEK293T cells assessed as photocrosslinking adduct formation at 1 uM pretreated with compound followed by UV irradiation for 30 mins by immunoprecipitation based Western blot analysis; format: cell-based

Chain of Peptidyl-prolyl cis-trans isomerase FKBP1A (P62942 whole entry): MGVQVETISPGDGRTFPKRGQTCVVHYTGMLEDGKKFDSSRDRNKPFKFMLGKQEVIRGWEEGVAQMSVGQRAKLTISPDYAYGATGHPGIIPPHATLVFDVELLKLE
Chain of Peptidyl-prolyl cis-trans isomerase FKBP1B (P68106 whole entry): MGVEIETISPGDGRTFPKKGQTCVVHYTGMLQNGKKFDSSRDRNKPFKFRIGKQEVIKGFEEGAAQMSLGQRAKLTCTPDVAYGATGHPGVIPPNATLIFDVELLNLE

Row | Kd [1] | Kd [2] | Kd [4] | Kd [5] | SMILES | Activity [3] | Activity [6] | Activity [7] | Activity [8] | Activity [9] | Activity [10] | Activity [11] | Activity [12] | Activity [13] | Activity [14] | Activity [15] | Activity [16] | Activity [17] | Activity [18] | Activity [19]
1 | 8.5 nM | 12 nM |  |  | CO[C@H]1C[C@@H]2CC[C@@H](C)[C@@](O)(O2)C(=O)C(=O)N2CCCC[C@H]2C(=O)O[C@H]([C@H](C)C[C@@H]2CC[C@@H](O)[C@H](OC)C2)CC(=O)[C@H](C)/C=C(\C)[C@@H](O)[C@@H](OC)C(=O)[C@H](C)C[C@H](C)/C=C/C=C/C=C/1C [SIROLIMUS] | inactive |  |  |  |  |  |  |  |  |  |  |  |  |  | 
2 | 6.7 nM | 1.2 nM | 0.03 nM | 0.38 nM | C[C@@H]1/C=C/CC/C=C/C(=O)[C@H](C)[C@@H]2CC[C@@H](C)[C@@](O)(O2)C(=O)C(=O)N2CCCC[C@H]2C(=O)O[C@H]([C@H](C)C[C@@H]2CC[C@@H](O)[C@H](O)[C@H]2O)CC1 | Active | Active | Active | Active | Active | Active | Active | Active | Active | Active | Active | Active | Active | Active | Active
3 | 75.9 nM |  |  |  | C=CC[C@@H]1/C=C(\C)C[C@H](C)C[C@H](OC)[C@H]2O[C@@](O)(C(=O)C(=O)N3CCCC[C@H]3C(=O)O[C@H](/C(C)=C/[C@@H]3CC[C@@H](O)[C@H](OC)C3)[C@H](C)[C@@H](O)CC1=O)[C@H](C)C[C@@H]2OC [TACROLIMUS ANHYDROUS] | inactive |  |  |  |  |  |  |  |  |  |  |  |  |  | 
